Laboratory results published in patent publication US20030119070A1, “Reagents for cell selection and methods of use” (Nexell Therapeutics, Inc., priority 2000, published 2003).
“And” between values parts separate entries of the source, which are not always exact repeats. Equal entries are not always repeated. Ends that are not written are not given here.

Assays:
anti-CD2 antibody B-E2 [1] = assay: FACS competition assay of peptides for binding of anti-CD2 antibody B-E2 to T cells; details: 1 mM peptide, 1×10^6 MNC, 15 min room temperature; FIG. 3
Procedure: Peptides having affinity for the CD2 monoclonal antibody B-E2 were isolated by phage display biopanning. Various peptides were tested as competitors for binding of T cells to the anti-CD2 antibody B-E2. A competition assay was performed using 1 mM of each peptide. The peptides were at 2×10^7 fold molar excess relative to the competitor CD2 antigen and at 6×10^6 fold molar excess relative to anti-CD2 antibody. Competition was measured using a FACS competition assay (see FIG. 3).
For the competition assay, 0.5 ml of a 1 mM solution of various peptides was added to 1×10^6 peripheral blood mononuclear cells (MNC) followed by the addition of 100 μl of 0.02 μg/ml of CD2 antibody (B-E2) and incubated for 15 min at room temperature. Cells were washed once in lysing reagent (155 mM ammonium chloride, 10 mM potassium bicarbonate, and 0.1 mM EDTA) and twice in 2 ml of PAH (DPBS, 1% human serum albumin, 0.02% NaN3). 1 μl of goat F(ab′)2 fragment anti-mouse IgG (heavy+light)-phycoerythrin conjugated (GAM-PE; Immunotech; Miami Fla.) was added to each sample and incubated for 10 min at room temperature. Cells were washed twice in 2 ml of PAH. The final cell pellet was resuspended in 0.25 ml of 0.5% paraformaldehyde. The samples were analyzed by flow cytometry.

anti-CD2 antibody B-E2 [2] = assay: FACS release assay of cells bound to anti-CD2 antibody using peptides; assay type: binding; details: 1 mM or 5 mM peptide, 30 min room temperature, in some cases 1 mM DTT; FIG. 4
Procedure: Several of the peptides were further tested for release activity. Briefly, the FACS release assay was performed by incubating 1×10^6 MNC with 100 μl of 0.02 μg/ml of CD2 antibody for 15 min at room temperature. Cells were washed once with 2 ml of lysing reagent and twice with 2 ml of PAH solution. 0.5 ml of a 1 mM or 5 mM peptide stock was added to the cell pellet and incubated at room temperature for 30 min. Cells were washed twice in 2 ml of PAH. 1 μl of GAM-PE was added to each sample and incubated for 10 min at room temperature. Cells were washed twice in 2 ml of PAH. The final cell pellet was resuspended in 0.25 ml of 0.5% paraformaldehyde. The samples were analyzed by flow cytometry.
In the release assay, either 1 mM or 5 mM peptide (1 mM peptide except where indicated to be 5 mM in FIG. 4). In some cases, the release assay was performed in the presence of 1 mM dithiothreitol (DTT). The assay was performed with two different batches of donor cells (second batch of donor cells designated with “*” in FIG. 4).

SUP-T1 cells = assay: Flow cytometry of SUP-T1 cells sensitized with CD8-PR34+ conjugate, biotinylated 9C5 and streptavidin-PE, with or without free peptide; assay type: cell-based, human; details: SUP-T1 cells stained with conjugate, biotinylated 9C5, streptavidin-PE; free peptide 5.0 mg/ml, 15 min; FIG. 2
Procedure: For flow cytometry experiments, SUP-T1 cells were used. SUP-T1 is a T-lymphoma-derived tumor cell line known to express typical T cell surface markers. The SUP-T1 cells were prepared for flow cytometry and sequentially sensitized with the CD8 antibody-PR34+ peptide (CD8-PR34+) conjugate, biotinylated 9C5, and phycoerythrin-labeled (PE-labeled) streptavidin. The SUP-T1 cells were incubated with either streptavidin-PE; sequentially with the CD8-PR34+ conjugate, biotinylated 9C5, followed by streptavidin-PE; or sequentially with CD8-PR34+ conjugate, biotinylated 9C5, streptavidin-PE, followed by a 15 min incubation with free PR34+™ peptide. The SUP-T1 cells were then analyzed by flow cytometry. All incubations were performed in a mixture of Dulbecco's phosphate buffered saline (GibcoBRL), 0.05% azide, 1.0% human serum albumin (PAH). All incubations were for 15 min at room temperature and each was followed by a wash with 1.0 ml PAH. The stained cells were resuspended in 0.25 ml PAH for flow cytometry. SUP-T1 cells (1×10^6) were stained with 1 μg of either the CD8-9069N or the CD34-biotin. The peptide was used at 5.0 mg/ml.

CD8+ cells = assay: Positive selection of CD8+ cells from a mononuclear cell preparation; assay type: cell-based, human; details: condition 2: biotinylated CD8 antibody capture; incubation with free PR34+ peptide
Procedure: To test the ability of the CD8-PR34+ conjugate to isolate CD8+ cells from a population, mononuclear cells (MNCs), which contain CD8+ cells, were prepared. Mononuclear cells were collected from human donors. Mononuclear cells were collected from a G-CSF mobilized human donor using a CS-3000™ (Baxter) following the protocol of the manufacturer. The starting population of MNCs was 19.42% CD3+/8+. For each rosetting reaction, a quantity of MNCs containing 2×10^6 CD8+ cells was used. Biotinylated CD8 antibody (MT-415) was biotinylated essentially as described in Example I. The MNCs were incubated under three conditions. In condition 1, MNCs were incubated with streptavidin beads alone. In condition 2, MNCs were incubated with biotinylated CD8 antibody, followed by streptavidin beads. In condition 3, MNCs were incubated with CD8-PR34+ conjugate, followed by biotinylated 9C5 and streptavidin beads. After incubation with streptavidin beads, the free cells were removed, and the cells attached to streptavidin beads were incubated with free PR34+™ peptide. The released cells were counted, and the number of CD8+ cells was evaluated using flow cytometry. The CD8+ cells were quantitated using a combination of CD3 and […]. CD3 is a pan T cell marker, and CD3+ populations can be further subdivided into mutually exclusive CD4+ and CD8 positive populations. […]

CD2+ T cells = assay: Positive selection of CD2+ T cells using CD2-9069N, b-9069 and streptavidin beads; assay type: cell-based, human; details: release reagent 9069N 2.5 mg; for % T-cells released: 30 min./RT
Text: To test the ability of a PR34+ peptide-conjugate to isolate a different cell type, the PR34+TM peptide was coupled to a CD2 antibody (B-E2; IgG2b isotype; Diaclone; Besancon, France) essentially as described in Example T. The PR34+TM peptide, also designated […], conjugated to the CD2 antibody was designated CD2-[…]. The biotinylated 9C5 antibody, also known as the 9069 antibody, was designated b-9069. Either mobilized or non-mobilized MNC preparations (see Example III) were used, with similar results. Cells were incubated with 1 μg or 5 μg of CD2-[…] conjugate for 15 min at room temperature (see Table 3). The cells were then incubated with 1 μg or 10 μg of biotinylated 9C5 antibody (b-9069) and streptavidin beads. Bound cells were subsequently incubated with either buffer or 2.5 mg of free PR34+TM peptide ([…]). Incubation conditions were essentially as described in Example II. The released cells were then quantitated and the purity determined. Purity and cell counts were assessed using an anti-CD3 antibody and the True Count flow cytometty quantitation method (Becton Dickenson; San Jose Calif.).

CD2 T cells = assay: T cell selection using CD2-PR34 conjugate and capture by direct binding of CD34 antibody to Dynabeads; assay type: cell-based, human; details: for % Purity / % Yield: release agent PR34+ 2.5 mg
Procedure: The CD2 antibody B-E2 was conjugated to PR34™ peptide essentially as described in Example IV. MNCs were incubated essentially as described in Example IV using CD2-PR34 conjugate. The cells were then incubated with the CD34 antibody 9069 coated on M-450 Dynabeads (Dynal). The CD34 antibody coated beads were prepared by absorbing various amounts of anti-CD34 antibody on the bead surface. The beads were prebound with 0, 1, 5, 20, or 50 μg of antibody per 108 beads. As a control, an aliquot of cells was incubated with streptavidin coated Dynabeads.

Camma cells = assay: Positive selection of Camma cells using Pan-O-5-PR34 conjugate and anti-CD34-coated Dynabeads; assay type: cell-based; details: PR34 peptide 5 mg/ml, 30 min room temperature; FIG. 5, N=1
Procedure: To prepare antibody-coated beads, Dynabeads (Dynal) were washed with Dulbecco's phosphate buffered saline (D-PBS). Washed beads were coated with 50 μg anti-CD34 monoclonal antibody per 10^8 beads for 24 hours at 4° C. The beads were washed twice with Isolex buffer and incubated with 1% albumin in the Isolex buffer for 24 hours at 4° C.
To synthesize the Pan-O-5-PR34 conjugate, the Pan-O-5 monoclonal antibody was incubated with N-(ε-maleimidocaproyloxy)succinimide ester for 30 min at room temperature to generate an antibody-linker complex. The antibody-linker complex was washed twice with D-PBS using an Amicon spin column (30 KD; Millipore Corp.; Bedford Mass.). The Pan-O-5-antibody-linker complex was incubated with PR34™ peptide for 30 min at room temperature. The Pan-O-5-linker-PR34 antibody complex was washed twice with D-PBS using an Amicon spin column. The concentration of the conjugate was determined by absorbance at 280 nm.
Cells (18×10^6) were incubated with Pan-O-5-linker-PR34 antibody (5 μg/ml) for 15 min. The cell-antibody complex was washed twice with Isolex buffer and incubated with anti-CD34-coated Dynabeads (5 beads per cell) for 30 min at room temperature. The Dynabeads were isolated with a magnet, and unbound cells were removed. The bead-cell fraction was incubated with PR34™ peptide (5 mg/ml) for 30 min at room temperature. […]

[3] = molecular target: biotinylated 9C5 antibody (anti-human CD34 monoclonal antibody); assay: cell-based or functional assay
[4] = SA: streptavidin coated Dynabead control

ACKRPP
competition for binding of the anti-CD2 antibody B-E2 to cells (anti-CD2 antibody B-E2 [1]): compete for binding

ACKQFN
competition for binding of the anti-CD2 antibody B-E2 to cells (anti-CD2 antibody B-E2 [1]): compete for binding

ACKRPPVSLTCH
competition for binding of the anti-CD2 antibody B-E2 to cells (anti-CD2 antibody B-E2 [1]): compete for binding

KCHPNMSLKECH
competition for binding of the anti-CD2 antibody B-E2 to cells (anti-CD2 antibody B-E2 [1]): compete for binding

ACKQFDFCNDHWSKSQH
competition for binding of the anti-CD2 antibody B-E2 to cells (anti-CD2 antibody B-E2 [1]): compete for binding

ASKQF
competition for binding of the anti-CD2 antibody B-E2 to cells (anti-CD2 antibody B-E2 [1]): compete for binding

ACKQFDFCNDH
competition for binding of the anti-CD2 antibody B-E2 to cells (anti-CD2 antibody B-E2 [1]): compete for binding

ACKQFNNDV
competition for binding of the anti-CD2 antibody B-E2 to cells (anti-CD2 antibody B-E2 [1]): compete for binding

RCRRPATTPACR
competition for binding of the anti-CD2 antibody B-E2 to cells (anti-CD2 antibody B-E2 [1]): compete for binding | release activity (release of T cells bound to anti-CD2 antibody) (anti-CD2 antibody B-E2 [2]): highest release activity

ACKQFDFCNDHWSK
competition for binding of the anti-CD2 antibody B-E2 to cells (anti-CD2 antibody B-E2 [1]): compete for binding

ACKQFNNDVTCN
competition for binding of the anti-CD2 antibody B-E2 to cells (anti-CD2 antibody B-E2 [1]): compete for binding

RCRRPATTPACRACKQF
competition for binding of the anti-CD2 antibody B-E2 to cells (anti-CD2 antibody B-E2 [1]): compete for binding

ACKQF
competition for binding of the anti-CD2 antibody B-E2 to cells (anti-CD2 antibody B-E2 [1]): compete for binding

ACKQFNNDVTCNKRH
competition for binding of the anti-CD2 antibody B-E2 to cells (anti-CD2 antibody B-E2 [1]): compete for binding

ACKQFNNDVTCNAAEGDD
competition for binding of the anti-CD2 antibody B-E2 to cells (anti-CD2 antibody B-E2 [1]): compete for binding

Ac-QQGWFPKD [PR34+™ peptide, peptide capable of displacing the anti-CD34 antibody 9C5 (9069); used free as release agent]
fluorescent signal after addition of free peptide (SUP-T1 cells): eliminated the fluorescent signal | % Yield (CD8+ cells): less than 3% | % Purity (CD3+) (CD2+ T cells; CD2-9069N 1 μg, b-9069 1 μg): 89% | % T-cells released (CD2+ T cells; CD2-9069N 1 μg, b-9069 1 μg): 71% | % Purity (CD3+) (CD2+ T cells; CD2-9069N 1 μg, b-9069 10 μg): 87% and 74% | % T-cells released (CD2+ T cells; CD2-9069N 1 μg, b-9069 10 μg): 87% and 65% | % Purity (CD3+) (CD2+ T cells; CD2-9069N 5 μg, b-9069 1 μg): 88% and 81% | % T-cells released (CD2+ T cells; CD2-9069N 5 μg, b-9069 1 μg): 61% and 56% | % Purity (CD3+) (CD2+ T cells; CD2-9069N 5 μg, b-9069 10 μg): 70% | % T-cells released (CD2+ T cells; CD2-9069N 5 μg, b-9069 10 μg): 50% | % Purity (CD2 T cells; 1 μg antibody per 10^8 beads): 92.4% | % Yield (CD2 T cells; 1 μg antibody per 10^8 beads): 55.9% | % Purity (CD2 T cells; 5 μg antibody per 10^8 beads): 91.3% | % Yield (CD2 T cells; 5 μg antibody per 10^8 beads): 68.9% | % Purity (CD2 T cells; 20 μg antibody per 10^8 beads): 91.8% | % Yield (CD2 T cells; 20 μg antibody per 10^8 beads): 47.4% | % Purity (CD2 T cells; 50 μg antibody per 10^8 beads): 91.4% | % Yield (CD2 T cells; 50 μg antibody per 10^8 beads): 57.5% | % Purity (CD2 T cells; [4]): 94.5% | % Yield (CD2 T cells; [4]): 81.5% | purity of the cells released by free peptide (CD2 T cells; summary, antibody-coated beads): greater than 90% | yield of CD2 cells (CD2 T cells; summary, antibody-coated beads incubated with free PR34+ peptide): ≥ 50% | cells released (Camma cells): Greater than 75%

ACKQFDFC
competition for binding of the anti-CD2 antibody B-E2 to cells (anti-CD2 antibody B-E2 [1]): compete for binding

ACKQLHSVSGCR
competition for binding of the anti-CD2 antibody B-E2 to cells (anti-CD2 antibody B-E2 [1]): compete for binding

ACKQFACKQF
competition for binding of the anti-CD2 antibody B-E2 to cells (anti-CD2 antibody B-E2 [1]): compete for binding

Ac-QQGWFPKD [free PR34+ peptide Ac-QQGWFPKD (SEQ ID NO:2)]
% SUP-T1 Yield after release with free peptide (tube 2) [3]: 43% | % SUP-T1 Yield after release with free peptide (tube 3) [3]: 31% | % T-cells released by 9069N 2.5 mg (CD2-9069N 1 µg, b-9069 1 µg) [3]: 71% | % T-cells released by 9069N 2.5 mg (CD2-9069N 1 µg, b-9069 10 µg) [3]: 87% and 65% | % T-cells released by 9069N 2.5 mg (CD2-9069N 5 µg, b-9069 1 µg) [3]: 61% and 56% | % T-cells released by 9069N 2.5 mg (CD2-9069N 5 µg, b-9069 10 µg) [3]: 50% | % Yield after release with PR34+ 2.5 mg (streptavidin coated Dynabead control) [3]: 81.5% | % Yield of CD8+ cells after release with free peptide (condition 3) [3]: 16%
